Source: patent publication US20100216854A1, “1,3 AND 1,3,5 SUBSTITUTED IMIDAZOLES AS […]” (Eldrug S.A., priority 2007, published 2010)
“And” between values parts separate entries of the source, which are not always exact repeats. Identical values can stand only once. Marks after values point to notes of the source that are not given here.

Experiments:
[1] = molecular target: T1, Angiotensin II (AII) receptor (Oryctolagus cuniculus, UniProt P34976); test: Hypotensive effect as ARBs in anesthetized rabbits made hypertensive by AII infusion; type: in vivo, New Zealand White rabbits; settings: AII infusion 1 μg/min; for Mean BP after 1st bolus (150 ng/kg) / Mean BP after 1st bolus (300 ng/kg): IV bolus; for Mean BP after 1st bolus (150 ng/kg) / Mean BP after 2nd bolus (300 ng/kg) / Mean BP after 1st bolus (300 ng/kg) / Mean BP after 2nd bolus (600 ng/kg): mean ± S.D.; for Mean BP after 2nd bolus (300 ng/kg): second IV bolus 15 min after 150 ng/kg; for Mean BP after 2nd bolus (600 ng/kg): second IV bolus 15 min after 300 ng/kg
T1 construct: evaluated in the anesthetized rabbit preparation made hypertensive by intravenous infusion of AII; from tissue; host or cells: whole living New Zealand White rabbit (in vivo blood pressure)
T1 sequence (P34976 1-359): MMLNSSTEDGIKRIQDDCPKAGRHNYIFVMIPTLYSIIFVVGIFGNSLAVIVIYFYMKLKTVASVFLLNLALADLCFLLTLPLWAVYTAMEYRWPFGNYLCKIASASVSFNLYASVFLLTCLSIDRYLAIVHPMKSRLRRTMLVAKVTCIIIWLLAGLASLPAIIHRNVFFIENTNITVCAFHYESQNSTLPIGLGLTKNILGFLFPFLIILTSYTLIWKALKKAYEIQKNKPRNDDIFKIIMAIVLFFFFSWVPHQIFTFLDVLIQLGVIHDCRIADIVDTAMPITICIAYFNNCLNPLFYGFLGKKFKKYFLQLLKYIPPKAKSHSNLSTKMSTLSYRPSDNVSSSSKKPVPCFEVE
Procedure: The hypotensive effect of these compounds as ARBs was evaluated in the anesthetized rabbit preparation made hypertensive by intravenous infusion of AII. In brief, adult normotensive male New Zealand White rabbits weighing between 2.5 and 3.5 kg were anesthetized by pentobarbitone (30 mg/kg), intubated and mechanically ventilated with 100% oxygen using a respirator for small animals (MD Industries, Mobile, Ala., USA). The tidal volume was 15 ml and the rate was adjusted to keep blood gases within normal range. Two polyethylene catheters were inserted, one in the carotid artery for continuous blood pressure monitoring via a transducer attached to a multichannel recorder (Nihon-Kohden, Model 6000, Japan) and the other one in the jugular vein for the administrations of solution made by diluting angiotensin II (ANGII) (Hypertension, CIBA) in 5% dextrose at final concentration of 5 μg/ml. Based on previous testing with this rabbit preparation submaximal angiotensin II-dependent hypertension was induced by infusing angiotensin via a syringe pump (Harvard Apparatus Pump 22, Harvard Apparatus, Natick, Mass., USA) at a constant rate of 0.2 ml/min (1 μg/min). Five minutes after the establishment of hypertension, two cumulative IV boluses of each compound were given via an ear vein 15 minutes apart. After the second bolus mean blood pressure was recorded for 30 minutes and the experiment was terminated. […]
Compounds E-P, H—P, H-Px, were also tested for the AngII receptor blocker properties, by testing their ability to block the hypertensive effect of AngII, using adult normotensive male New Zealand white rabbits. […] Values represent the mean blood pressure and are given as mean±S.D.

α2-AR = test: Testing α2-agonist properties: BP response to norepinephrine bolus before and after compound in mice; type: in vivo, Swiss Webster mice; settings: for suppression of the hypertensive effect of NE: NE bolus 30 minutes after injection of compound, higher dose (300) for E-P, 100 for H-P, H-Px and UK 14304; for BP after compound (100 μg/kg): iv 100 μg/kg; for BP after compound (300 μg/kg): iv 300 μg/kg
Procedure: Swiss Webster mice were anesthetized with 50 mg/kg pentobarbital and two lines were inserted, one in right iliac artery and the other in right iliac vein. Next morning the arterial line was connected to a blood pressure transducer and the mean BP was recorded with a Power lab/800 data acquisition system. The venous line was used for drug infusion.

[2] = anesthetized rabbits; cited from earlier work
rat uterus = rat uterus assay; cited from earlier work
[3] = Effect on mean BP in anesthetized normotensive rabbits (agonistic effect); type: in vivo; settings: cumulative IV injections of 300-900 ng/kg
[4] = group mean, after 100 μg/kg compound, second NE bolus 30 min after compound
[5] = group mean, BP recorded after injection
[6] = individual mice, 100 μg/kg compound
[7] = individual mice, after 100 μg/kg compound

In the case of `CCCCC1=NC2(CCCC2)C(=O)N1Cc1ccc(-c2ccccc2-c2nnn[nH]2)cc1` [Irbesartan], the “Mean BP after 1st bolus (150 ng/kg)” value [1] is reported as 141 ± 10 mmHg, the “Mean BP after 2nd bolus (300 ng/kg)” value [1] is reported as 133 ± 11 mmHg and the “Cumulative % drop in mean BP after the 2nd bolus” value (shortened to “Cumulative % drop in mean BP”) ([1]; boluses 150 then 300 ng/kg) is reported as −24 ± 7%.

In the case of `Brc1c(NC2=NCCN2)ccc2nccnc12` [UK 14304, reference compound], the “suppression of the hypertensive effect of NE” value (“suppression” below) (α2-AR) is reported as 48%, the “Δ2 = BP changes between second bolus of Norepinephrine and the new baseline BP after injection of compound” value (“Δ2 = BP changes between second bolus” for short) (α2-AR; group mean, 100 μg/kg compound) is reported as 15.8 mmHg and the “BP after second bolus NE (0.12 μg/kg)” value (α2-AR; [4]) is reported as 125.5 mmHg. The “BP after compound (100 μg/kg)” value (α2-AR; [5]) was 109.8 mmHg, the “Δ2 = BP changes between second bolus” value (α2-AR; individual mice, 100 μg/kg compound, listed as UK) was 20.0 mmHg and 12.0 mmHg and 7.0 mmHg and 24.0 mmHg and the “BP after second bolus NE (0.12 μg/kg)” value (α2-AR; individual mice, after 100 μg/kg compound, listed as UK) was 125.0 mmHg and 123.0 mmHg and 115.0 mmHg and 139.0 mmHg. The “BP after compound (100 μg/kg)” value (α2-AR; individual mice, listed as UK) was 105.0 mmHg and 111.0 mmHg and 108.0 mmHg and 115.0 mmHg and the “decrease in BP” value (α2-AR; mice, 100 Ilg/kg, control α2-agonist) was 15 mmHg.

In the case of [Sar^1, Lys^3, Glu^5]ANG II, the agonist activity [2] is given as “possesses agonist activity” and the agonist activity (rat uterus) is given as “possesses agonist activity”.

In the case of `CCCCc1nc(Cl)c(CO)n1Cc1ccc(-c2ccccc2-c2nn[nH]n2)cc1` [Losartan], the “Mean BP after 1st bolus (150 ng/kg)” value [1] is reported as 148 ± 6 mmHg, the “Mean BP after 2nd bolus (300 ng/kg)” value [1] is reported as 136 ± 3 mmHg and the “Cumulative % drop in mean BP” value ([1]; boluses 150 then 300 ng/kg) is reported as −22 ± 5%.

With `CCOc1nc2cccc(C(=O)O)c2n1Cc1ccc(-c2ccccc2-c2nnn[nH]2)cc1` [Candesartan] the “Cumulative % drop in mean BP” value ([1]; boluses 150 then 300 ng/kg) was −41 ± 3%.

In the case of `N=C(N)NCCc1cncn1Cc1ccccc1-c1nnn[nH]1` [E-P], the “effect on mean BP” value [3] is reported as “did not significantly affect mean BP”, the “Mean BP after 1st bolus (300 ng/kg)” value [1] is reported as 149 ± 7 mmHg and the “Mean BP after 2nd bolus (600 ng/kg)” value [1] is reported as 140 ± 3 mmHg. For the same molecule, the “Cumulative % drop in mean BP” value ([1]; boluses 300 then 600 ng/kg) was −15 ± 4%, the “suppression” value (α2-AR) was 45% and the “Δ2 = BP changes between second bolus” value (α2-AR; group mean, 100 μg/kg compound) was 23.0 mmHg. The “Δ2 = BP changes between second bolus” value (α2-AR; group mean, 300 μg/kg compound) was 12.3 mmHg, the “BP after second bolus NE (0.12 μg/kg)” value (α2-AR; [4]) was 153.5 mmHg and the “BP after second bolus NE (0.12 μg/kg)” value (α2-AR; group mean, after 300 μg/kg compound) was 124.0 mmHg. For the same molecule, the “BP after compound (100 μg/kg)” value (α2-AR; [5]) was 130.5 mmHg, the “BP after compound (300 μg/kg)” value (α2-AR; group mean) was 111.7 mmHg and the “Δ2 = BP changes between second bolus” value (α2-AR; [6]) was 32.0 mmHg and 14.0 mmHg. The “Δ2 = BP changes between second bolus” value (α2-AR; individual mice, 300 μg/kg compound) was 8.0 mmHg and 13.0 mmHg and 16.0 mmHg, the “BP after second bolus NE (0.12 μg/kg)” value (α2-AR; [7]) was 158.0 mmHg and 149.0 mmHg and the “BP after second bolus NE (0.12 μg/kg)” value (α2-AR; individual mice, after 300 μg/kg compound) was 128.0 mmHg and 120.0 mmHg and 124.0 mmHg. The “BP after compound (100 μg/kg)” value (α2-AR; individual mice) was 126.0 mmHg and 135.0 mmHg, the “BP after compound (300 μg/kg)” value (α2-AR; individual mice) was 120.0 mmHg and 107.0 mmHg and 108.0 mmHg and the dose required to suppress NE effect (α2-AR; mice) was 0.3 mg/kg.

In the case of `NCCc1cncn1Cc1ccccc1-c1nnn[nH]1` [H-Px], the “effect on mean BP” value [3] is reported as “did not significantly affect mean BP”, the “Mean BP after 1st bolus (300 ng/kg)” value [1] is reported as 148 ± 23 mmHg and the “Mean BP after 2nd bolus (600 ng/kg)” value [1] is reported as 131 ± 15 mmHg. The “Cumulative % drop in mean BP” value ([1]; boluses 300 then 600 ng/kg) was −24 ± 4%, the “suppression” value (α2-AR) was 42% and the “Δ2 = BP changes between second bolus” value (α2-AR; group mean, 100 μg/kg compound) was 12.0 mmHg. The “BP after second bolus NE (0.12 μg/kg)” value (α2-AR; [4]) was 128.3 mmHg, the “BP after compound (100 μg/kg)” value (α2-AR; [5]) was 125.3 mmHg and the “Δ2 = BP changes between second bolus” value (α2-AR; [6]) was 15* mmHg and 11.0 mmHg and 13.0 mmHg. For the same molecule, the “BP after second bolus NE (0.12 μg/kg)” value (α2-AR; [7]) was 114.0 mmHg and 136.0 mmHg and 135.0 mmHg, the “BP after compound (100 μg/kg)” value (α2-AR; individual mice) was 129.0 mmHg and 125.0 mmHg and 122.0 mmHg and the “dose required to suppress NE effect” value (α2-AR; mice) was 0.1 mg/kg.
